Source: patent US20170071922A1, “ARTIFICIAL SKIN” (Shiseido Company, Ltd., priority 2010, published 2017)

Tested on: skin model (EFT-400, MatTeK)
Experiment: Electron microscope observation of skin model cultured with MMP inhibitor and/or heparanase inhibitor
Type: cell-based, human
Conditions: electron micrographs; result in words
Description: A skin model (EFT-400, MatTeK) was cultured in a specialized medium (EFT-400-ASY, MatTeK). Dimethylsulfoxide (DMSO) and ethanol were added to the specialized medium to a final concentration of 0.1% to serve as a control group, 50 mM 1-[4-(1H-benzoimidazol-2-yl)-phenyl]-3-[4-(1H-benzoimidazol-2-yl)-phenyl]-urea (DMSO solvent) was added to the specialized medium to a final concentration of 50 μM to serve as a heparanase inhibitor group, 10 mM N-hydroxy-2-[[(4-methoxyphenyl)sulfonyl] (3-picolyl)amino]-3-methylbutanamide hydrochloride (CGS27023A, ethanol solvent) was added to the specialized medium to a final concentration of 10 μM to serve as an MMP inhibitor group, and 50 mM 1-[4-(1H-benzoimidazol-2-yl)-phenyl]-3-[4-(1H-benzoimidazol-2-yl)-phenyl]-urea (DMSO solvent) and 10 mM CGS27023A (ethanol solvent) were added to the specialized medium to a final concentration of 50 μM and 10 μM, respectively, to serve as a heparanase inhibitor+MMP inhibitor group, followed by culturing.
The aforementioned skin model was cut in half after culturing, fixed with Zamboni's fixative and post-fixed with osmic acid, followed by embedding in resin in accordance with established methods. Tissues were observed by preparing ultra-thin sections and staining with uranyl acetate followed by observing with an electron microscope (JEM-1230, JEOL). […]

fibroblasts present in dermis directly beneath basement membrane (FIG. 2)	Compound
normal fibroblasts	O=C(Nc1ccc(-c2nc3ccccc3[nH]2)cc1)Nc1ccc(-c2nc3ccccc3[nH]2)cc1 [Group B, 1-[4-(1H-benzoimidazol-2-yl)-phenyl]-3-[4-(1H-benzoimidazol-2-yl)-phenyl]-urea]
normal fibroblasts	COc1ccc(S(=O)(=O)N(Cc2cccnc2)C(C(=O)NO)C(C)C)cc1.Cl (centres unmarked) [Group A, N-hydroxy-2-[[(4-methoxyphenyl)sulfonyl](3-picolyl)amino]-3-methylbutanamide hydrochloride]
